From ChEMBL document CHEMBL2375284, “Novel hybrids of natural isochroman-4-one bearing N-substituted isopropanolamine as potential antihypertensive candidates” (Bioorg Med Chem, 2013)

What was measured:
[1] = system: Rattus norvegicus; assay: Antihypertensive activity in rat spontaneous hypertensive model assessed as mean arterial blood pressure at 80 mg/kg, po measured at 8 hrs by tail-cuff method (reference value: 155.8 +/- 11.54 mmHg); assay type: functional, Artery
[2] = system: Rattus norvegicus; assay: Antihypertensive activity in rat spontaneous hypertensive model assessed as mean arterial blood pressure at 80 mg/kg, po measured at 6 hrs by tail-cuff method (reference value: 155.8 +/- 7.97 mmHg); assay type: functional, Artery
[3] = system: Rattus norvegicus; assay: Antihypertensive activity in rat spontaneous hypertensive model assessed as mean arterial blood pressure at 80 mg/kg, po measured at 4 hrs by tail-cuff method (reference value: 154.4 +/- 20.1 mmHg); assay type: functional, Artery
[4] = system: Rattus norvegicus; assay: Antihypertensive activity in rat spontaneous hypertensive model assessed as mean arterial blood pressure at 80 mg/kg, po measured at 2 hrs by tail-cuff method (reference value: 157.41 +/- 9.62 mmHg); assay type: functional, Artery
[5] = system: Rattus norvegicus; assay: Antihypertensive activity in rat spontaneous hypertensive model assessed as mean arterial blood pressure at 80 mg/kg, po measured at 1 hr by tail-cuff method (reference value: 158.9 +/- 13.65 mmHg); assay type: functional, Artery
[6] = system: Rattus norvegicus; assay: Antihypertensive activity in rat spontaneous hypertensive model assessed as mean arterial blood pressure at 80 mg/kg, po measured at 0.5 hrs by tail-cuff method (reference value: 156.2 +/- 7.21 mmHg); assay type: functional, Artery
[7] = system: Rattus norvegicus; assay: Antihypertensive activity in rat spontaneous hypertensive model assessed as diastolic arterial blood pressure at 80 mg/kg, po measured at 8 hrs by tail-cuff method (reference value: 135.3 +/- 8.21 mmHg); assay type: functional, Artery
[8] = system: Rattus norvegicus; assay: Antihypertensive activity in rat spontaneous hypertensive model assessed as diastolic arterial blood pressure at 80 mg/kg, po measured at 6 hrs by tail-cuff method (reference value: 141.2 +/- 7.34 mmHg); assay type: functional, Artery
[9] = system: Rattus norvegicus; assay: Antihypertensive activity in rat spontaneous hypertensive model assessed as diastolic arterial blood pressure at 80 mg/kg, po measured at 4 hrs by tail-cuff method (reference value: 141.4 +/- 7.11 mmHg); assay type: functional, Artery
[10] = system: Rattus norvegicus; assay: Antihypertensive activity in rat spontaneous hypertensive model assessed as diastolic arterial blood pressure at 80 mg/kg, po measured at 2 hrs by tail-cuff method (reference value: 142.9 +/- 18.07 mmHg); assay type: functional, Artery
[11] = system: Rattus norvegicus; assay: Antihypertensive activity in rat spontaneous hypertensive model assessed as diastolic arterial blood pressure at 80 mg/kg, po measured at 1 hr by tail-cuff method (reference value: 146.2 +/- 13.19 mmHg); assay type: functional, Artery
[12] = system: Rattus norvegicus; assay: Antihypertensive activity in rat spontaneous hypertensive model assessed as diastolic arterial blood pressure at 80 mg/kg, po measured at 0.5 hrs by tail-cuff method (reference value: 138.7 +/- 9.2 mmHg); assay type: functional, Artery
[13] = system: Rattus norvegicus; assay: Antihypertensive activity in rat spontaneous hypertensive model assessed as systolic arterial blood pressure at 80 mg/kg, po measured at 8 hrs by tail-cuff method (reference value: 174 +/- 12.1 mmHg); assay type: functional, Artery
[14] = system: Rattus norvegicus; assay: Antihypertensive activity in rat spontaneous hypertensive model assessed as systolic arterial blood pressure at 80 mg/kg, po measured at 6 hrs by tail-cuff method (reference value: 176.7 +/- 15.21 mmHg); assay type: functional, Artery
[15] = system: Rattus norvegicus; assay: Antihypertensive activity in rat spontaneous hypertensive model assessed as systolic arterial blood pressure at 80 mg/kg, po measured at 4 hrs by tail-cuff method (reference value: 172.9 +/- 10.21 mmHg); assay type: functional, Artery
[16] = system: Rattus norvegicus; assay: Antihypertensive activity in rat spontaneous hypertensive model assessed as systolic arterial blood pressure at 80 mg/kg, po measured at 2 hrs by tail-cuff method (reference value: 172.6 +/- 17.3 mmHg); assay type: functional, Artery
[17] = system: Rattus norvegicus; assay: Antihypertensive activity in rat spontaneous hypertensive model assessed as systolic arterial blood pressure at 80 mg/kg, po measured at 1 hr by tail-cuff method (reference value: 181.2 +/- 16.37 mmHg); assay type: functional, Artery
[18] = system: Rattus norvegicus; assay: Antihypertensive activity in rat spontaneous hypertensive model assessed as systolic arterial blood pressure at 80 mg/kg, po measured at 0.5 hrs by tail-cuff method (reference value: 178.5 +/- 10.13 mmHg); assay type: functional, Artery
[19] = system: Rattus norvegicus; assay: Toxicity in rat spontaneous hypertensive model assessed as heart rate at 80 mg/kg, po measured at 8 hrs by tail-cuff method (reference value: 397.2 +/- 24.87 bpm); assay type: organism-based; parameters: dose 80 mg/kg, route oral; settings: in vivo
[20] = system: Rattus norvegicus; assay: Toxicity in rat spontaneous hypertensive model assessed as heart rate at 80 mg/kg, po measured at 6 hrs by tail-cuff method (reference value: 405.1 +/- 24 bpm); assay type: organism-based; parameters: dose 80 mg/kg, route oral; settings: in vivo
[21] = system: Rattus norvegicus; assay: Toxicity in rat spontaneous hypertensive model assessed as heart rate at 80 mg/kg, po measured at 4 hrs by tail-cuff method (reference value: 403.1 +/- 15.92 bpm); assay type: organism-based; parameters: dose 80 mg/kg, route oral; settings: in vivo
[22] = system: Rattus norvegicus; assay: Toxicity in rat spontaneous hypertensive model assessed as heart rate at 80 mg/kg, po measured at 2 hrs by tail-cuff method (reference value: 399.5 +/- 19.68 bpm); assay type: organism-based; parameters: dose 80 mg/kg, route oral; settings: in vivo
[23] = system: Rattus norvegicus; assay: Toxicity in rat spontaneous hypertensive model assessed as heart rate at 80 mg/kg, po measured at 1 hr by tail-cuff method (reference value: 403.9 +/- 12.41 bpm); assay type: organism-based; parameters: dose 80 mg/kg, route oral; settings: in vivo
[24] = system: Rattus norvegicus; assay: Toxicity in rat spontaneous hypertensive model assessed as heart rate at 80 mg/kg, po measured at 0.5 hrs by tail-cuff method (reference value: 406.5 +/- 13.15 bpm); assay type: organism-based; parameters: dose 80 mg/kg, route oral; settings: in vivo
[25] = system: Rattus norvegicus; assay: Antihypertensive activity in rat spontaneous hypertensive model assessed as mean arterial blood pressure at 20 mg/kg, po measured at 8 hrs by tail-cuff method (reference value: 155.8 +/- 11.54 mmHg); assay type: functional, Artery
[26] = system: Rattus norvegicus; assay: Antihypertensive activity in rat spontaneous hypertensive model assessed as mean arterial blood pressure at 20 mg/kg, po measured at 6 hrs by tail-cuff method (reference value: 155.8 +/- 7.97 mmHg); assay type: functional, Artery
[27] = system: Rattus norvegicus; assay: Antihypertensive activity in rat spontaneous hypertensive model assessed as mean arterial blood pressure at 20 mg/kg, po measured at 4 hrs by tail-cuff method (reference value: 154.4 +/- 20.1 mmHg); assay type: functional, Artery
[28] = system: Rattus norvegicus; assay: Antihypertensive activity in rat spontaneous hypertensive model assessed as mean arterial blood pressure at 20 mg/kg, po measured at 2 hrs by tail-cuff method (reference value: 157.41 +/- 9.62 mmHg); assay type: functional, Artery
[29] = system: Rattus norvegicus; assay: Antihypertensive activity in rat spontaneous hypertensive model assessed as mean arterial blood pressure at 20 mg/kg, po measured at 1 hr by tail-cuff method (reference value: 158.9 +/- 13.65 mmHg); assay type: functional, Artery
[30] = system: Rattus norvegicus; assay: Antihypertensive activity in rat spontaneous hypertensive model assessed as mean arterial blood pressure at 20 mg/kg, po measured at 0.5 hrs by tail-cuff method (reference value: 156.2 +/- 7.21 mmHg); assay type: functional, Artery
[31] = system: Rattus norvegicus; assay: Antihypertensive activity in rat spontaneous hypertensive model assessed as diastolic arterial blood pressure at 20 mg/kg, po measured at 8 hrs by tail-cuff method (reference value: 135.3 +/- 8.21 mmHg); assay type: functional, Artery
[32] = system: Rattus norvegicus; assay: Antihypertensive activity in rat spontaneous hypertensive model assessed as diastolic arterial blood pressure at 20 mg/kg, po measured at 6 hrs by tail-cuff method (reference value: 141.2 +/- 7.34 mmHg); assay type: functional, Artery
[33] = system: Rattus norvegicus; assay: Antihypertensive activity in rat spontaneous hypertensive model assessed as diastolic arterial blood pressure at 20 mg/kg, po measured at 4 hrs by tail-cuff method (reference value: 141.4 +/- 7.11 mmHg); assay type: functional, Artery
[34] = system: Rattus norvegicus; assay: Antihypertensive activity in rat spontaneous hypertensive model assessed as diastolic arterial blood pressure at 20 mg/kg, po measured at 2 hrs by tail-cuff method (reference value: 142.9 +/- 18.07 mmHg); assay type: functional, Artery
[35] = system: Rattus norvegicus; assay: Antihypertensive activity in rat spontaneous hypertensive model assessed as diastolic arterial blood pressure at 20 mg/kg, po measured at 1 hr by tail-cuff method (reference value: 146.2 +/- 13.19 mmHg); assay type: functional, Artery
[36] = system: Rattus norvegicus; assay: Antihypertensive activity in rat spontaneous hypertensive model assessed as diastolic arterial blood pressure at 20 mg/kg, po measured at 0.5 hrs by tail-cuff method (reference value: 138.7 +/- 9.2 mmHg); assay type: functional, Artery
[37] = system: Rattus norvegicus; assay: Antihypertensive activity in rat spontaneous hypertensive model assessed as systolic arterial blood pressure at 20 mg/kg, po measured at 8 hrs by tail-cuff method (reference value: 174 +/- 12.1 mmHg); assay type: functional, Artery
[38] = system: Rattus norvegicus; assay: Antihypertensive activity in rat spontaneous hypertensive model assessed as systolic arterial blood pressure at 20 mg/kg, po measured at 6 hrs by tail-cuff method (reference value: 176.7 +/- 15.21 mmHg); assay type: functional, Artery
[39] = system: Rattus norvegicus; assay: Antihypertensive activity in rat spontaneous hypertensive model assessed as systolic arterial blood pressure at 20 mg/kg, po measured at 4 hrs by tail-cuff method (reference value: 172.9 +/- 10.21 mmHg); assay type: functional, Artery
[40] = system: Rattus norvegicus; assay: Antihypertensive activity in rat spontaneous hypertensive model assessed as systolic arterial blood pressure at 20 mg/kg, po measured at 2 hrs by tail-cuff method (reference value: 172.6 +/- 17.3 mmHg); assay type: functional, Artery
[41] = system: Rattus norvegicus; assay: Antihypertensive activity in rat spontaneous hypertensive model assessed as systolic arterial blood pressure at 20 mg/kg, po measured at 1 hr by tail-cuff method (reference value: 181.2 +/- 16.37 mmHg); assay type: functional, Artery
[42] = system: Rattus norvegicus; assay: Antihypertensive activity in rat spontaneous hypertensive model assessed as systolic arterial blood pressure at 20 mg/kg, po measured at 0.5 hrs by tail-cuff method (reference value: 178.5 +/- 10.13 mmHg); assay type: functional, Artery
[43] = system: Rattus norvegicus; assay: Toxicity in rat spontaneous hypertensive model assessed as heart rate at 20 mg/kg, po measured at 8 hrs by tail-cuff method (reference value: 397.2 +/- 24.87 bpm); assay type: organism-based; parameters: dose 20 mg/kg, route oral; settings: in vivo
[44] = system: Rattus norvegicus; assay: Toxicity in rat spontaneous hypertensive model assessed as heart rate at 20 mg/kg, po measured at 6 hrs by tail-cuff method (reference value: 405.1 +/- 24 bpm); assay type: organism-based; parameters: dose 20 mg/kg, route oral; settings: in vivo
[45] = system: Rattus norvegicus; assay: Toxicity in rat spontaneous hypertensive model assessed as heart rate at 20 mg/kg, po measured at 4 hrs by tail-cuff method (reference value: 403.1 +/- 15.92 bpm); assay type: organism-based; parameters: dose 20 mg/kg, route oral; settings: in vivo
[46] = system: Rattus norvegicus; assay: Toxicity in rat spontaneous hypertensive model assessed as heart rate at 20 mg/kg, po measured at 2 hrs by tail-cuff method (reference value: 399.5 +/- 19.68 bpm); assay type: organism-based; parameters: dose 20 mg/kg, route oral; settings: in vivo
[47] = system: Rattus norvegicus; assay: Toxicity in rat spontaneous hypertensive model assessed as heart rate at 20 mg/kg, po measured at 1 hr by tail-cuff method (reference value: 403.9 +/- 12.41 bpm); assay type: organism-based; parameters: dose 20 mg/kg, route oral; settings: in vivo
[48] = system: Rattus norvegicus; assay: Toxicity in rat spontaneous hypertensive model assessed as heart rate at 20 mg/kg, po measured at 0.5 hrs by tail-cuff method (reference value: 406.5 +/- 13.15 bpm); assay type: organism-based; parameters: dose 20 mg/kg, route oral; settings: in vivo

## COc1ccc2c(c1OCC(O)CNC(C)C)COC(C)C2=O (stereo not drawn)
[1]
  Activity: 137.4 mmHg
[2]
  Activity: 138.9 mmHg
[3]
  Activity: 135.4 mmHg
[4]
  Activity: 129.3 mmHg
[5]
  Activity: 133.1 mmHg
[6]
  Activity: 144.8 mmHg
[7]
  Activity: 122.9 mmHg
[8]
  Activity: 124.4 mmHg
[9]
  Activity: 117.7 mmHg
[10]
  Activity: 109.5 mmHg
[11]
  Activity: 114.6 mmHg
[12]
  Activity: 129.6 mmHg
[13]
  Activity: 166.3 mmHg
[14]
  Activity: 168 mmHg
[15]
  Activity: 170.9 mmHg
[16]
  Activity: 169 mmHg
[17]
  Activity: 170.1 mmHg
[18]
  Activity: 175.3 mmHg
[19]
  Activity: 372.8 bpm
[20]
  Activity: 374.7 bpm
[21]
  Activity: 373.2 bpm
[22]
  Activity: 368.8 bpm
[23]
  Activity: 375 bpm
[24]
  Activity: 383.4 bpm

## CC(C)NCC(O)COc1cccc2ccccc12 (stereo not drawn) [PROPRANOLOL]
[25]
  Activity: 132.6 mmHg
[26]
  Activity: 120.9 mmHg
[27]
  Activity: 108.3 mmHg
[28]
  Activity: 116.8 mmHg
[29]
  Activity: 122.6 mmHg
[30]
  Activity: 145 mmHg
[31]
  Activity: 116.9 mmHg
[32]
  Activity: 100.3 mmHg
[33]
  Activity: 88.3 mmHg
[34]
  Activity: 94.1 mmHg
[35]
  Activity: 105.5 mmHg
[36]
  Activity: 127.2 mmHg
[37]
  Activity: 163.9 mmHg
[38]
  Activity: 161 mmHg
[39]
  Activity: 158.4 mmHg
[40]
  Activity: 160.6 mmHg
[41]
  Activity: 156.8 mmHg
[42]
  Activity: 168.7 mmHg
[43]
  Activity: 362.3 bpm
[44]
  Activity: 360.1 bpm
[45]
  Activity: 349.6 bpm
[46]
  Activity: 350.6 bpm
[47]
  Activity: 339.9 bpm
[48]
  Activity: 340 bpm
